Reference: patent publication US20120295866A1, “Synthesis And Use Of Glycoside Pro-Drug Analogs” (Nutek Pharma Ltd., priority 2011, published 2012)
Converted amounts (≈) assume the structure as drawn.

Assays:
[1] = Solubility determination of propofol analogs in D2O by 1H NMR with DSS internal standard; conditions: D2O, water, thermodynamic from solid
Protocol: Thus the soapy-like solutions obtained were diluted until opalescent and diluted further until the opalescence visually disappeared.

[2] = Pharmacokinetics: concentration of propofol in rat plasma after intravenous infusion of each pro-drug, LC/MS/MS; conditions: for Mean Concentration of Propofol in Rat Plasma After Intravenous Administration: Time 0 h (pre-dose), analyte propofol from the administered compound; for pro-drug efficiency, release of propofol: releasing the propofol in a matter of minutes after infusion, rat
Protocol: (§1) Blood samples were to be taken pre-dose, during dose and post dose at designated intervals, with the blood quickly processed and stored at −70° C. until analysis.
(§2) Formulations were prepared on the morning of the dosing day and each was passed through a 0.22 μm filter prior to being administered to animals. A standard dose of 0.168 mmol/Kg per analog was administered to each of the rats. […] Analog stability in the formulations was verified by preparing each formulation and harvesting 200 μL aliquots at 0, 1, 2 and 8 hr while standing at room temperature. After harvesting, each sample was immediately frozen in dry ice until analysis; concentrations of test compounds in the samples were examined by HPLC-UV.
(§3) The animals were surgically prepared with indwelling cannula, double cannulation in carotid artery and jugular vein for i.v. infusion. The anesthetic pentobarbital was used during the surgery, and the animals were allowed to recover 3-5 days after surgery before the formulation was dosed. The dose formulation was administered intravenously via the jugular vein cannula. The 16.8 μmol/mL formulation was administered i.v. at a rate of 1 mL/Kg/min for 10 min.
(§4) Approximately 0.20 mL blood was collected at each designated time point from carotid artery via a catheter. A total of 12 plasma samples were taken from each animal: 1 pre-dose; 2 during the dose (5 into the 10 min infusion and one just prior termination of the 10 min infusion) and 9 post-infusion at 2, 5, 15, 30 min and 1, 2, 3, 4, and 6 hr post-dose. All blood samples were transferred into plastic microcentrifuge tubes containing 5 μL of K2-EDTA (0.5M) as anti-coagulant and placed on ice until processed for plasma. Blood samples were processed for plasma by centrifugation at approximately 5° C. Plasma samples were then stored in 1.5 mL tubes, quick frozen over dry ice and kept at −70±10° C. until LC/MSMS analysis.
(§5) For each, a minimum of 6 standard point curve runs in duplicates, and minimum of 5 standards were back calculated to within ±20% of their nominal concentrations. The LLOQ of each test article in plasma was established and 6 QC samples were included in assay runs of samples to ensure assay performance.
(§6) Plasma concentration versus time data was analyzed by non-compartmental approaches using the WinNonlin software program (version 5.2, Pharsight, Mountain View, Calif.) and the pharmacokinetic parameters T½, CL, Vss, AUC(0-t), AUC(0-inf), MRT, and graphs of plasma concentration versus time calculated for each.

rats = assay: Clinical observations of rats during administration of propofol analogs in the pharmacokinetics study; conditions: time post-10 min i.v. infusion, 0.168 mmol/Kg
Protocol: as §1, §2, §3

[3] = Pharmacokinetics: concentration of prodrug (or propofol) in rat plasma after intravenous infusion, LC/MS/MS; conditions: for Mean concentration of prodrug and propofol in rat plasma after intravenous infusion administration: analyte = administered compound
Protocol: as §1, §2, §3, §4, §5, §6

[4] = male, Sprague-Dawley, rat, plasma, iv, 0.168 mmol/Kg

Compound	solubility [1]	Mean Concentration of Propofol in Rat Plasma After Intravenous Administration [2]	pro-drug efficiency, release of propofol [2]	Clinical Observation: recovered at (rats)	Mean concentration of prodrug and propofol in rat plasma after intravenous infusion administration ([3]; Time 0 h (pre-dose))	Mean concentration of prodrug and propofol in rat plasma after intravenous infusion administration ([3]; Time 3.166 h)	Mean concentration of prodrug and propofol in rat plasma after intravenous infusion administration ([3]; Time 4.166 h)	Mean concentration of prodrug and propofol in rat plasma after intravenous infusion administration ([3]; Time 6.166 h)	other results
CC(C)c1cccc(C(C)C)c1OC(=O)OCCO[C@@H]1O[C@H](CO)[C@@H](O)[C@H](O)[C@H]1O [Compound 9]	9.4 mM (≈ 4030 µg/mL)	BQL	very efficient pro-drugs	recovered at about 30 min	BQL	BQL	BQL	BQL	Mean concentration of prodrug and propofol in rat plasma after intravenous infusion administration ([3]; Time 0.083 h (during 10 min infusion)): BQL; Mean concentration of prodrug and propofol in rat plasma after intravenous infusion administration ([3]; Time 0.167 h (end of 10 min infusion)): BQL; Mean concentration of prodrug and propofol in rat plasma after intravenous infusion administration ([3]; Time 0.2 h): BQL; Mean concentration of prodrug and propofol in rat plasma after intravenous infusion administration ([3]; Time 0.25 h): BQL; Mean concentration of prodrug and propofol in rat plasma after intravenous infusion administration ([3]; Time 0.417 h): BQL; Mean concentration of prodrug and propofol in rat plasma after intravenous infusion administration ([3]; Time 0.667 h): BQL; Mean concentration of prodrug and propofol in rat plasma after intravenous infusion administration ([3]; Time 1.166 h): BQL; Mean concentration of prodrug and propofol in rat plasma after intravenous infusion administration ([3]; Time 2.166 h): BQL
CC(C)c1cccc(C(C)C)c1OC(=O)OCCCO[C@@H]1O[C@H](CO)C(O[C@H]2O[C@H](CO)[C@@H](O)[C@H](O)[C@H]2O)[C@H](O)[C@H]1O (stereo partly drawn) [Compound 25, 1-((2′,6′-diisopropylphenoxy)carbonyloxy)propyl-β-D-maltose]	> 20 mM	BQL	very efficient pro-drugs	recovered at about 35 min	BQL	BQL	BQL	BQL	AUC(0-inf) [3, 4]: 8.57 µM·h; AUC(0-t) [3, 4]: 8.57 µM·h; Cmax [3, 4]: 68.4 µM; MRT inf [3, 4]: 4.62 min; Tmax [3, 4]: 10.2 min; Vd [3, 4]: 1.51 L/kg; clearance [3, 4]: 20.2 L/h/kg; half-life [3, 4]: 15.2 min
